This passage reports EC50 results from US20140045823A1 (Neurocrine Biosciences, Inc., priority 2012, published 2014).

This test deals with T1, human GPR119 (Homo sapiens, UniProt Q8TDV5).
T1 construct: expression vector for human GPR119 cDNA (Acc. No. NP_848566); expressed in transfected cells; Min-6/hGPR119
T1 sequence (Q8TDV5 1-335): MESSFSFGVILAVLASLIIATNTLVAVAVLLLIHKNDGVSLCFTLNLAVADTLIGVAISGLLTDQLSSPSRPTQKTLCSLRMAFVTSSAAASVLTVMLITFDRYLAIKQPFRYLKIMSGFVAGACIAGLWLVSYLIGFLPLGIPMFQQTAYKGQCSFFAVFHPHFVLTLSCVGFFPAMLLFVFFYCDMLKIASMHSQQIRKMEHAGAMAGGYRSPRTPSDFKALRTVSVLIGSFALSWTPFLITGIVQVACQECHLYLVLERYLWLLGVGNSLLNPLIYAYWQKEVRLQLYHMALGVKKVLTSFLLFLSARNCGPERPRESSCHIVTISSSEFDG
Briefly: AlphaScreen cAMP assay in MIN6 cells stably transfected with human GPR119. The class given is cell-based. As to conditions: Min-6/hGPR119 cells, 45 min at room temperature. The method in brief: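 cAMP accumulation quantified by AlphaScreen after 45 min compound stimulation at about 20 °C. Stimulation buffer: pH 7.4 HEPES saline with 0.5 mM IBMX, 0.1% BSA, 1% DMSO final. Cells: MIN6 stably transfected with human GPR119, 10000/well, cultured 24 h beforehand.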
Usually EC50 stands for the concentration that produces a half-maximal response. Compound `CC(C)(C)OC(=O)N1CCC(N(C(=O)c2cnc(-c3ccc(C(=O)N4CCCC(CO)C4)c(F)c3)nc2)C2CC2)CC1` (centres unmarked) [Example 129, 4-(Cyclopropyl-{2-[3-fluoro-4-(3-hydroxymethyl-piperidine-1-carbonyl)-phenyl]-pyrimidine-5-carbonyl}-amino)-piperidine-1-carboxylic acid tert-butyl ester] showed a half-maximal effective concentration (EC50) of 548 nM.

For the compound `CC(C)(C)OC(=O)N1CCC(N(C(=O)c2cc(-c3ccc([N+](=O)[O-])cc3)[nH]n2)C2CC2)CC1` [Example 65, 4-{Cyclopropyl-[5-(4-nitro-phenyl)-1H-pyrazole-3-carbonyl]-amino}-piperidine-1-carboxylic acid tert-butyl ester], the response was half-maximal at 1170 nM (EC50).

As for `CO[C@@H]1CCN(C(=O)Cc2ccc(-c3ncc(C(=O)N(C4CC4)C4CCN(C(=O)OC(C)(C)C)CC4)cn3)cc2)C1` [Example 194, 4-[Cyclopropyl-(2-{4-[2-(3-methoxy-pyrrolidin-1-yl)-2-oxo-ethyl]-phenyl}-pyrimidine-5-carbonyl)-amino]-piperidine-1-carboxylic acid tert-butyl ester], the 50% effective concentration (EC50) worked out at 325 nM. Then `CC(C)(C)OC(=O)N1CCC(N(C(=O)c2cnc(-c3ccc(C(=O)N4CCC(C#N)C4)c(F)c3)nc2)C2CC2)CC1` (centres unmarked) [Example 163, 4-({2-[4-(3-Cyano-pyrrolidine-1-carbonyl)-3-fluoro-phenyl]-pyrimidine-5-carbonyl}-cyclopropyl-amino)-piperidine-1-carboxylic acid tert-butyl ester], with 405 nM. Then `CC(C)(C)OC(=O)N1CCC(N(C(=O)c2cnc(-c3ccc(C#N)c(F)c3)nc2)C2CC2)CC1` [Example 90, 4-{[2-(4-Cyano-3-fluoro-phenyl)-pyrimidine-5-carbonyl]-cyclopropyl-amino}-piperidine-1-carboxylic acid tert-butyl ester], with 8 nM. As to `CN(CC1CCOCC1)C(=O)c1ccc(-c2ncc(C(=O)N(C3CC3)C3CCN(C(=O)OC(C)(C)C)CC3)cn2)cc1` [Example 193, 4-[Cyclopropyl-(2-{4-[methyl-(tetrahydro-pyran-4-ylmethyl)-carbamoyl]-phenyl}-pyrimidine-5-carbonyl)-amino]-piperidine-1-carboxylic acid tert-butyl ester], the EC50 amounted to 300 nM. The figure for `CN(CC1CCOC1)C(=O)c1ccc(-c2ncc(C(=O)N(C3CC3)C3CCN(C(=O)OC(C)(C)C)CC3)cn2)cc1F` (centres unmarked) [Example 115, 4-[Cyclopropyl-(2-{3-fluoro-4-[methyl-(tetrahydro-furan-3-ylmethyl)-carbamoyl]-phenyl}-pyrimidine-5-carbonyl)-amino]-piperidine-1-carboxylic acid tert-butyl ester] is 164 nM; for `COc1ccc(NC(=O)c2ccc(-c3ncc(C(=O)N(C4CC4)C4CCN(C(=O)OC(C)(C)C)CC4)cn3)cc2)cn1` [Example 174, 4-(Cyclopropyl-{2-[4-(6-methoxy-pyridin-3-ylcarbamoyl)-phenyl]-pyrimidine-5-carbonyl}-amino)-piperidine-1-carboxylic acid tert-butyl ester] it is 170 nM; for `CCOCCNC(=O)c1ccc(-c2ncc(C(=O)N(C3CC3)C3CCN(C(=O)OC(C)(C)C)CC3)cn2)cc1` [Example 175, 4-(Cyclopropyl-{2-[4-(2-ethoxy-ethylcarbamoyl)-phenyl]-pyrimidine-5-carbonyl}-amino)-piperidine-1-carboxylic acid tert-butyl ester] it is 165 nM. The figure for `CC(C)(C)OC(=O)N1CCC(N(C(=O)c2ncc(-c3ccc(S(C)(=O)=O)cc3)cn2)C2CC2)CC1` [Example 68, 4-{Cyclopropyl-[5-(4-methanesulfonyl-phenyl)-pyrimidine-2-carbonyl]-amino}-piperidine-1-carboxylic acid tert-butyl ester] is 544 nM; for `CC(C)(C)OC(=O)N1CCC(N(C(=O)c2cnc(-c3ccc(C(=O)N4CCOCC4)cc3)nc2)C2CC2)CC1` [Example 230, 4-(Cyclopropyl-{2-[4-(morpholine-4-carbonyl)-phenyl]-pyrimidine-5-carbonyl}-amino)-piperidine-1-carboxylic acid tert-butyl ester] it is 297 nM; for `Cc1cnc(CNC(=O)Cc2ccc(-c3ncc(C(=O)N(C4CC4)C4CCN(C(=O)OC(C)(C)C)CC4)cn3)cc2)s1` [Example 199, 4-{Cyclopropyl-[2-(4-{[(5-methyl-thiazol-2-ylmethyl)-carbamoyl]-methyl}-phenyl)-pyrimidine-5-carbonyl]-amino}-piperidine-1-carboxylic acid tert-buyl ester] it is 395 nM. The figure for `CC(C)OC(=O)N1CCC(N(C(=O)c2ccc(-c3ccc(S(C)(=O)=O)cc3)nc2)C2CC2)CC1` [Example 2, 4-{Cyclopropyl-[6-(4-methanesulfonyl-phenyl)-pyridine-3-carbonyl]-amino}-piperidine-1-carboxylic acid isopropyl ester] is 213 nM; for `CC(C)(C)OC(=O)N1CCC(N(C(=O)c2ccc(-c3cnco3)cn2)C2CC2)CC1` [Example 8, 4-[Cyclopropyl-(5-oxazol-5-yl-pyridine-2-carbonyl)-amino]-piperidine-1-carboxylic acid tert-butyl ester] it is 120 nM. Turning to `CC(C)(C)OC(=O)N1CCC(N(C(=O)c2cnc(-n3ccnc3)nc2)C2CC2)CC1` [Example 247], the EC50 turned out to be 51 nM. The figure for `CN(CCOCC1CC1)C(=O)c1ccc(-c2ncc(C(=O)N(C3CC3)C3CCN(C(=O)OC(C)(C)C)CC3)cn2)cc1` [Example 220, 4-[Cyclopropyl-(2-{4-[(2-cyclopropylmethoxy-ethyl)-methyl-carbamoyl]-phenyl}-pyrimidine-5-carbonyl)-amino]-piperidine-1-carboxylic acid tert-butyl ester] is 183 nM; for `CC(C)(C)OC(=O)N1CCC(N(C(=O)c2coc(-c3ccc(C#N)cc3)n2)C2CC2)CC1` [Example 29, 4-{[2-(4-Cyano-phenyl)-oxazole-4-carbonyl]-cyclopropyl-amino}-piperidine-1-carboxylic acid tert-butyl ester] it is 118 nM; for `CN(CC#N)C(=O)Cc1ccc(-c2ncc(C(=O)N(C3CC3)C3CCN(C(=O)OC(C)(C)C)CC3)cn2)cc1` [Example 218, 4-[(2-{4-[(Cyanomethyl-methyl-carbamoyl)-methyl]-phenyl}-pyrimidine-5-carbonyl)-cyclopropyl-amino]-piperidine-1-carboxylic acid tert-butyl ester] it is 216 nM.

For `COCc1cccc(NC(=O)c2ccc(-c3ncc(C(=O)N(C4CC4)C4CCN(C(=O)OC(C)(C)C)CC4)cn3)cc2)c1` [Example 240, 4-(Cyclopropyl-{2-[4-(3-methoxymethyl-phenylcarbamoyl)-phenyl]-pyrimidine-5-carbonyl}-amino)-piperidine-1-carboxylic acid tert-butyl ester], a half-maximal effect (EC50) was put at 171 nM. Then `Cc1nccn1-c1ncc(C(=O)N(C2CC2)C2CCN(C(=O)OC(C)C)CC2)cn1` [Example 54, 4-{Cyclopropyl-[2-(2-methyl-imidazol-1-yl)-pyrimidine-5-carbonyl]-amino}-piperidine-1-carboxylic acid isopropyl ester], with 129 nM; and `COC[C@H]1CCCN1C(=O)c1ccc(-c2ncc(C(=O)N(C3CC3)C3CCN(C(=O)OC(C)(C)C)CC3)cn2)cc1` [Example 203, 4-(Cyclopropyl-{2-[4-(2-methoxymethyl-pyrrolidine-1-carbonyl)-phenyl]-pyrimidine-5-carbonyl}-amino)-piperidine-1-carboxylic acid tert-butyl ester], with 295 nM. Then `CC(C)(C)OC(=O)N1CCC(N(C(=O)c2cnc(-c3ccc(C(=O)N4CCCC(O)C4)cc3)nc2)C2CC2)CC1` (centres unmarked) [Example 190, 4-(Cyclopropyl-{2-[4-(3-hydroxy-piperidine-1-carbonyl)-phenyl]-pyrimidine-5-carbonyl}-amino)-piperidine-1-carboxylic acid tert-buyl ester], with 820 nM. The figure for `CC(C)(C)OC(=O)N1CCC(N(C(=O)c2cnc(-c3ccc(CC(=O)Nc4cccc(CO)c4)cc3)nc2)C2CC2)CC1` [Example 217, 4-[Cyclopropyl-(2-{4-[(3-hydroxymethyl-phenylcarbamoyl)-methyl]-phenyl}-pyrimidine-5-carbonyl)-amino]-piperidine-1-carboxylic acid tert-butyl ester] is 550 nM; for `CC(C)(C)OC(=O)N1CCC(N(C(=O)c2cnc(-c3ccc(CC(=O)NCC4CCCCO4)cc3)nc2)C2CC2)CC1` (centres unmarked) [Example 219, 4-{Cyclopropyl-[2-(4-{[(tetrahydro-pyran-2-ylmethyl)-carbamoyl]-methyl}-phenyl)-pyrimidine-5-carbonyl]-amino}-piperidine-1-carboxylic acid tert-butyl ester] it is 375 nM. Compound `CC(C)(C)OC(=O)N1CCC(N(C(=O)c2ncc(-c3ccc(C#N)c(F)c3)cn2)C2CC2)CC1` [Example 66, 4-{[5-(4-Cyano-3-fluoro-phenyl)-pyrimidine-2-carbonyl]-cyclopropyl-amino}-piperidine-1-carboxylic acid tert-butyl ester] returned an EC50 of 636 nM. Then `COC(=O)c1ccc(-n2cnc(C(=O)N(C3CC3)C3CCN(C(=O)OC(C)(C)C)CC3)c2)c(F)c1` [Example 15, 4-{Cyclopropyl-[1-(2-fluoro-4-methoxycarbonyl-phenyl)-1H-imidazole-4-carbonyl]-amino}-piperidine-1-carboxylic acid tert-butyl ester], with 157 nM.
